Data published in US8633166B2, “Methicillin-resistant Staphylococcus aureus active metabolites” (priority 2009, dated 2014).

Tests used:
[1] = tested on: enterococci; assay: In vitro MIC, for enterococci; type: cell-based; conditions: E. faecalis and E. faecium, vancomycin-susceptible and vancomycin-resistant strains
Description: All test articles were dissolved in DMSO. Stock solutions were prepared at 40-fold the highest concentration in the test plate. The final concentration of DMSO in the test system was 2.5%.
The medium employed for the MIC assay was Mueller Hinton II Broth (MHB II-Becton Dickinson, #212322, Lot #9044411) for most of the organisms. MHB II was supplemented with 2% lysed horse blood (Cleveland Scientific Lot #22299-1) to accommodate the growth of Streptococcus pneumoniae, Streptococcus pyogenes and Streptococcus agalactiae. The media were prepared at 102.5% the normal weight to offset the dilution created by the addition of 5 μL drug solution to each well of the microdilution panels. […]
Plates were stacked 3 high, covered with a lid on the top plate, placed in plastic bags, and incubated at 35° C. for approximately 18 hours for most of the isolates. The Streptococcus plates were read after 20 hours of incubation. […] The MIC was read and recorded as the lowest concentration of drug that inhibited visible growth of the organism.

[2] = Maximum tolerated dose, preliminary experiment; type: in vivo, Mice (CD-1); conditions: 20 mg/kg IP for two days
Description: The number of MRSA isolated from vancomycin treated animals was 2.2×10^7 g of tissue, a reduction of 72% compared to vehicle control. Similarly, the number of MRSA recovered after treatment with compound (I) at 3 mg/kg and 15 mg/kg were 2.6×10^7 and 1.8×10^7 respectively, which correspond to a reduction of 67% and 78% as compared to vehicle control. […] To determine the maximum tolerated dose in the preliminary experiment, a maximum of 20 mg/kg of compound (1) was giving IP for two days.

[3] = tested on: Methicillin-resistant Staphylococcus aureus; assay: In vivo MRSA assay, thigh infection in a murine model; design: species or system Mice (CD-1); conditions: for number of MRSA recovered from muscle tissue: 48 hours, neutropenic mice
Description: The in vivo antimicrobial activity for the isolated glycosides is represented in FIGS. 2A and 2B. Mice (CD-1) were purchased from Harlan Inc. and acclimatized up to 5 days before use. Food and water were available ad libitum throughout the study. They were rendered neutropenic by two injections of cyclophosphamide (100 mg/kg) given intraperitoneally, one and four days before infection. A volume of 50 uL suspension of Methicillin-resistant Staphylococcus aureus (1.5×10^6 live organisms) was injected intramuscularly (1M) into each of the two rear thighs. Each thigh was considered as an individual data point (total of 4 data points for each treatment). These mice were randomly distributed into the control or treatment groups (n=2/group).
Treatment with the test compound (1) was initiated via the intraperitoneal route 2 hrs after thigh inoculation. Control animals were concurrently administered saline (mock treatment) or vancomycin in the same volume as those receiving compound (1). All animals were sacrificed after 48 hours by CO2 inhalation. Immediately following sacrifice, thigh tissue was collected from the animals, weighed, and homogenized in 5.0 mL of saline. Thigh muscle homogenate was then processed for microbiological assay to determine the number of MRSA cfu per gram of muscle tissue.

Structure (SMILES): C[C@@H]1O[C@@H](Oc2c(-c3ccc(O)cc3)oc3cc(O)cc(O)c3c2=O)[C@H](OC(=O)/C=C/c2ccc(O)cc2)[C@H](OC(=O)/C=C/c2ccc(O)cc2)[C@H]1O [Compound 1, kaempferol 3-O-α-L-(2″,3″-di-E-p-coumaroyl)rhamnoside]
- activity against enterococci [1]: inhibited multiple strains
- acute toxicity at maximum dose given [2]: No untoward effect
- reduction compared to vehicle control ([3]; 3 mg/kg): 67%
- number of MRSA recovered from muscle tissue ([3]; 3 mg/kg intraperitoneal): 2.6×10^7 cfu/g
- reduction compared to vehicle control ([3]; 15 mg/kg): 78%
- number of MRSA recovered from muscle tissue ([3]; 15 mg/kg intraperitoneal): 1.8×10^7 cfu/g
